The values below come from PubChem BioAssay AID1963952 (Xavier Lab, Infectious Disease and Microbiome Program, …, 2024).

The target in the assay is Peptidyl-prolyl cis-trans isomerase FKBP1A (Homo sapiens) (UniProt P62942). Kind of assay: FKBP12 binders, dose response, biochemical, TR-FRET (AID 1963952). As to conditions: FKBP12 binding.

Each structure is given as a SMILES string. The source made the active and inactive calls. No rule for the calls is given here.

Sequence of Peptidyl-prolyl cis-trans isomerase FKBP1A (Homo sapiens) (P62942 whole entry, looked up): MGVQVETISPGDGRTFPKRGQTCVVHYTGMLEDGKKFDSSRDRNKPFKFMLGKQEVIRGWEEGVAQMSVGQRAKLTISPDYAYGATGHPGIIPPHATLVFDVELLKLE

Turning to `CCC(C)(C)C(=O)C(=O)N1CCCC[C@H]1C(=O)N[C@H](CCc1ccc(OC)cc1)C(=O)N1CC[C@H](Nc2nc(NCCc3sc(N)nc3C)nc(N(C)Cc3nnc4n3CCC4)n2)C1`, the EC50 is 13.3 µM. As for `CCC(C)(C)C(=O)C(=O)N1CCCC[C@H]1C(=O)N[C@H](CCc1ccc(OC)cc1)C(=O)N1[C@@H]2CC[C@H]1CC(Nc1nc(NCCc3sc(N)nc3C)nc(NCCn3cnc4ccccc43)n1)C2` (stereo not given in full), the EC50 is 18.4 µM. For `CCC(C)(C)C(=O)C(=O)N1CCCC[C@H]1C(=O)O[C@H](CCc1ccccc1)C(=O)N1[C@@H]2CC[C@H]1CC(Nc1nc(NCCc3sc(N)nc3C)nc(N3CCn4ncnc4C3)n1)C2` (stereo not given in full), the half-maximal effective concentration (EC50) is 17.1 µM.

Regarding `CCC(C)(C)C(=O)C(=O)N1CCCC[C@H]1C(=O)N[C@H](CCc1ccc(OC)cc1)C(=O)N1[C@@H]2CC[C@H]1CC(Nc1nc(NCCc3sc(N)nc3C)nc(NCc3ccnc(CO)c3)n1)C2` (stereo not given in full), the EC50 is 36.8 µM.

With `CC(=O)N1[C@@H]2CC[C@H]1CC(Nc1nc(NCCc3sc(N)nc3C)nc(N3CCn4ncnc4C3)n1)C2` (stereo not given in full), the result was inactive. With `CCC(C)(C)C(=O)C(=O)N1CCCC[C@H]1C(=O)N[C@H](CCc1ccc(OC)cc1)C(=O)N1[C@@H]2CC[C@H]1CC(Nc1nc(NCCc3sc(N)nc3C)nc(N3CCn4ncnc4C3)n1)C2` (stereo not given in full), the EC50 was 29.5 µM. As for `CCC(C)(C)C(=O)C(=O)N1CCCC[C@H]1C(=O)N[C@H](CCc1ccc(OC)cc1)C(=O)N1CC(Nc2nc(NCCc3sc(N)nc3C)nc(NCCn3cnc4ccccc43)n2)C1`, the EC50 was 35 µM. On to `CCC(C)(C)C(=O)C(=O)N1CCCC[C@H]1C(=O)N[C@H](CCc1ccc(OC)cc1)C(=O)N1[C@@H]2CC[C@H]1CC(Nc1nc(NCCc3sc(N)nc3C)nc(N(C)Cc3nnc4n3CCC4)n1)C2` (stereo not given in full), for which the EC50 was 17.9 µM. As to `CCC(C)(C)C(=O)C(=O)N1CCCC[C@H]1C(=O)N[C@H](CCc1ccc(OC)cc1)C(=O)N1[C@@H]2CC[C@H]1CC(NC(C)=O)C2` (stereo not given in full), the half-maximal effective concentration (EC50) is 28.9 µM. Regarding `CCC(C)(C)C(=O)C(=O)N1CCCC[C@H]1C(=O)N[C@H](CCc1ccc(OC)cc1)C(=O)N1[C@@H]2CC[C@H]1CC(Nc1nc(NCCc3ccccc3)nc(N3CCn4ncnc4C3)n1)C2` (stereo not given in full), the EC50 was 36 µM.
